Values of other authors, collected in paper PMC3834896.

Experiment: not told
Conditions: not given

Compound	log partition n-octanol / PBS or water [log10]
CCCCCCCCCCCCN1CCCC1=O	4.9
CCCCCCN1CCCCC1=O	2.6
CCCCN1CCCC1=O	1.02
CCCCCCCCN1CCCC1=O	3.0
CCCCCCN1CCCC1=O	2.1
CCCCN1CCCCC1=O	1.4
CCCCCCCCCCN1CCCC1=O	4.1
CCCCCCCCN1CCCCC1=O	3.4

Same assay, conditions: not told

Compound	log partition n-octanol / PBS or water [log10]
CCCCCCN1CCCCCC1=O	2.9
CCCCCCCCN1CCCCCC1=O	4.0
CCCCCCC(=O)N(C)C	1.9
CCCCCCCC(=O)N(C)C	2.6
CCCCCC(=O)N(C)C	1.4
CCCCCCCCC(=O)N(C)C	1.9
CCCCN1CCCCCC1=O	1.8
CCCCCCCCCCCCN1CCCCCC1=O	6.3
CCCCCCCCCC(=O)N1CC(O)CC1C(=O)NCC (centres unmarked)	2.9
